Values quoted from earlier work as cited in patent publication US7129249B2, “Heterocyclic amide derivatives as inhibitors of glycogen phoshorylase” (AstraZeneca AB, priority 2002, dated 2006).

Experiments:
conscious dogs = settings: following a glucagon challenge
db/db and ob/ob mice = db/db and ob/ob mice following treatment

Compound | arterial plasma glucose (conscious dogs) | hepatic glucose output (conscious dogs) | plasma glucose concentration (db/db and ob/ob mice) | glucagon stimulated glycogenolysis (hepatocytes) | glucose output (hepatocytes)
CCN1C(C)=C(C(=O)OC(C)C)C(c2ccccc2Cl)C2=C1COC2=O (centres unmarked) [Bay R 3401] | reduced significantly | reduced significantly | – | – | –
CN(C)C(=O)[C@H](O)[C@H](Cc1ccccc1)NC(=O)c1cc2cc(Cl)ccc2[nH]1 [CP91149] | – | – | reduced, in a dose related manner | reduce | reduce
O=C(N[C@@H](Cc1ccc(F)cc1)C(=O)N1CCC(O)CC1)c1cc2cc(Cl)ccc2[nH]1 [CP320626] | – | – | reduced, in a dose related manner | reduce | reduce
